Assay results published in PMC12090182, “Repurposing of the RIPK1-Selective Benzo[1,4]oxazepin-4-one Scaffold for the Development of a Type III LIMK1/2 Inhibitor” (ACS Chemical Biology, 2025).

Test system: MRC-9 cells
Assay: Multiplex high-content viability assessment
Type: cell-based
Conditions: human fibroblast
Outline: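 HEK293T and U2OS cells (DMEM) and MRC-9 fibroblasts (EMEM) exposed to compounds at 1 and 10 μM. Live-cell confocal imaging of cell shape and fluorescence before and at 12, 24 and 48 h. Normalized to 0.1% DMSO; biological duplicates with SEM.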

[1] = 1 µM, 0 h after treatment, biological replicate 1
[2] = 1 µM, 0 h after treatment, biological replicate 2
[3] = 1 µM, 12 h after treatment, biological replicate 1
[4] = 1 µM, 12 h after treatment, biological replicate 2
[5] = 1 µM, 24 h after treatment, biological replicate 1
[6] = 1 µM, 24 h after treatment, biological replicate 2
[7] = 1 µM, 48 h after treatment, biological replicate 1
[8] = 1 µM, 48 h after treatment, biological replicate 2
[9] = 10 µM, 0 h after treatment, biological replicate 1
[10] = 10 µM, 0 h after treatment, biological replicate 2
[11] = 10 µM, 12 h after treatment, biological replicate 1
[12] = 10 µM, 12 h after treatment, biological replicate 2
[13] = 10 µM, 24 h after treatment, biological replicate 1
[14] = 10 µM, 24 h after treatment, biological replicate 2
[15] = 10 µM, 48 h after treatment, biological replicate 1
[16] = 10 µM, 48 h after treatment, biological replicate 2

## CC(C)C(=O)Nc1ncc(C(=O)NCCN(Cc2ccccc2)C(=O)c2ccc(S(=O)(=O)Nc3ccccc3)cc2)s1 [TH470]
[1]
  Cell count normalized to cells treated with DMSO control: 0.8608
  Cell count per well: 129
  Population Fragmented Nuclei (%): 29.31%
  Population Healthy Nuclei (%): 61.21%
  Population Pyknosed Nuclei (%): 9.48%
  Population apoptotic cell (%): 36.36%
  Population cell that influence microtubule strucutre (%): 19.72%
  Population with increased mitochondrial mass (%): 8.45%
  Population with membrane disruption (%): 1.41%
[2]
  Cell count normalized to cells treated with DMSO control: 0.9307
  Cell count per well: 166
  Population Fragmented Nuclei (%): 25.00%
  Population Healthy Nuclei (%): 44.23%
  Population Pyknosed Nuclei (%): 30.77%
  Population apoptotic cell (%): 35.42%
  Population cell that influence microtubule strucutre (%): 44.93%
  Population with increased mitochondrial mass (%): 11.59%
  Population with membrane disruption (%): 10.14%
[3]
  Cell count normalized to cells treated with DMSO control: 0.8102
  Cell count per well: 122
  Population Fragmented Nuclei (%): 23.93%
  Population Healthy Nuclei (%): 62.39%
  Population Pyknosed Nuclei (%): 13.68%
  Population apoptotic cell (%): 43.75%
  Population cell that influence microtubule strucutre (%): 27.40%
  Population with increased mitochondrial mass (%): 4.11%
  Population with membrane disruption (%): 2.74%
[4]
  Cell count normalized to cells treated with DMSO control: 0.8825
  Cell count per well: 147
  Population Fragmented Nuclei (%): 34.51%
  Population Healthy Nuclei (%): 42.25%
  Population Pyknosed Nuclei (%): 23.24%
  Population apoptotic cell (%): 36.36%
  Population cell that influence microtubule strucutre (%): 73.33%
  Population with increased mitochondrial mass (%): 13.33%
  Population with membrane disruption (%): 15.00%
[5]
  Cell count normalized to cells treated with DMSO control: 0.8356
  Cell count per well: 126
  Population Fragmented Nuclei (%): 27.27%
  Population Healthy Nuclei (%): 57.02%
  Population Pyknosed Nuclei (%): 15.70%
  Population apoptotic cell (%): 63.16%
  Population cell that influence microtubule strucutre (%): 34.78%
  Population with increased mitochondrial mass (%): 4.35%
  Population with membrane disruption (%): 1.45%
[6]
  Cell count normalized to cells treated with DMSO control: 0.9099
  Cell count per well: 150
  Population Fragmented Nuclei (%): 42.18%
  Population Healthy Nuclei (%): 40.82%
  Population Pyknosed Nuclei (%): 17.01%
  Population apoptotic cell (%): 56.00%
  Population cell that influence microtubule strucutre (%): 61.67%
  Population with increased mitochondrial mass (%): 10.00%
  Population with membrane disruption (%): 18.33%
[7]
  Cell count normalized to cells treated with DMSO control: 0.8239
  Cell count per well: 125
  Population Fragmented Nuclei (%): 33.87%
  Population Healthy Nuclei (%): 54.03%
  Population Pyknosed Nuclei (%): 12.10%
  Population apoptotic cell (%): 60.00%
  Population cell that influence microtubule strucutre (%): 41.79%
  Population with increased mitochondrial mass (%): 4.48%
  Population with membrane disruption (%): 1.49%
[8]
  Cell count normalized to cells treated with DMSO control: 0.9026
  Cell count per well: 147
  Population Fragmented Nuclei (%): 48.98%
  Population Healthy Nuclei (%): 42.18%
  Population Pyknosed Nuclei (%): 8.84%
  Population apoptotic cell (%): 69.23%
  Population cell that influence microtubule strucutre (%): 61.29%
  Population with increased mitochondrial mass (%): 16.13%
  Population with membrane disruption (%): 9.68%
[9]
  Cell count normalized to cells treated with DMSO control: 1.121
  Cell count per well: 168
  Population Fragmented Nuclei (%): 21.21%
  Population Healthy Nuclei (%): 57.58%
  Population Pyknosed Nuclei (%): 21.21%
  Population apoptotic cell (%): 25.71%
  Population cell that influence microtubule strucutre (%): 17.89%
  Population with increased mitochondrial mass (%): 6.32%
  Population with membrane disruption (%): 1.05%
[10]
  Cell count normalized to cells treated with DMSO control: 0.8074
  Cell count per well: 144
  Population Fragmented Nuclei (%): 27.54%
  Population Healthy Nuclei (%): 50.00%
  Population Pyknosed Nuclei (%): 22.46%
  Population apoptotic cell (%): 38.71%
  Population cell that influence microtubule strucutre (%): 49.28%
  Population with increased mitochondrial mass (%): 15.94%
  Population with membrane disruption (%): 2.90%
[11]
  Cell count normalized to cells treated with DMSO control: 1.202
  Cell count per well: 181
  Population Fragmented Nuclei (%): 19.88%
  Population Healthy Nuclei (%): 54.97%
  Population Pyknosed Nuclei (%): 25.15%
  Population apoptotic cell (%): 39.53%
  Population cell that influence microtubule strucutre (%): 77.66%
  Population with increased mitochondrial mass (%): 9.57%
  Population with membrane disruption (%): 3.19%
[12]
  Cell count normalized to cells treated with DMSO control: 0.9125
  Cell count per well: 152
  Population Fragmented Nuclei (%): 31.25%
  Population Healthy Nuclei (%): 34.03%
  Population Pyknosed Nuclei (%): 34.72%
  Population apoptotic cell (%): 54.00%
  Population cell that influence microtubule strucutre (%): 91.84%
  Population with increased mitochondrial mass (%): 14.29%
  Population with membrane disruption (%): 18.37%
[13]
  Cell count normalized to cells treated with DMSO control: 1.167
  Cell count per well: 176
  Population Fragmented Nuclei (%): 24.85%
  Population Healthy Nuclei (%): 52.66%
  Population Pyknosed Nuclei (%): 22.49%
  Population apoptotic cell (%): 57.89%
  Population cell that influence microtubule strucutre (%): 78.65%
  Population with increased mitochondrial mass (%): 19.10%
  Population with membrane disruption (%): 1.12%
[14]
  Cell count normalized to cells treated with DMSO control: 0.825
  Cell count per well: 136
  Population Fragmented Nuclei (%): 34.62%
  Population Healthy Nuclei (%): 32.31%
  Population Pyknosed Nuclei (%): 33.08%
  Population apoptotic cell (%): 44.19%
  Population cell that influence microtubule strucutre (%): 88.10%
  Population with increased mitochondrial mass (%): 19.05%
  Population with membrane disruption (%): 16.67%
[15]
  Cell count normalized to cells treated with DMSO control: 1.081
  Cell count per well: 164
  Population Fragmented Nuclei (%): 23.18%
  Population Healthy Nuclei (%): 54.97%
  Population Pyknosed Nuclei (%): 21.85%
  Population apoptotic cell (%): 48.48%
  Population cell that influence microtubule strucutre (%): 89.16%
  Population with increased mitochondrial mass (%): 22.89%
  Population with membrane disruption (%): 0.00%
[16]
  Cell count normalized to cells treated with DMSO control: 0.7798
  Cell count per well: 127
  Population Fragmented Nuclei (%): 44.35%
  Population Healthy Nuclei (%): 37.90%
  Population Pyknosed Nuclei (%): 17.74%
  Population apoptotic cell (%): 63.64%
  Population cell that influence microtubule strucutre (%): 89.36%
  Population with increased mitochondrial mass (%): 17.02%
  Population with membrane disruption (%): 17.02%
